Assay results published in EP0215136B1, “Hexetidin-containing therapeutically active agent, method for its preparation and its use as a vaginal disinfectant” (Artesan Pharma Gesellschaft mit beschränkter Haftung, priority 1985, dated 1987).

Columns and labels:
[1] = cited from earlier work
[2] = cited from earlier work; remark: listed apart in the source
[3] = Stability of hexetidine in aqueous solution; format: physicochemical; conditions: neutral to weakly acidic aqueous solution; rearranges to two isomers up to an equilibrium
From the text: Aufgrund über Jahre geführter Untersuchungen sind die bekannten Methoden nicht geeignet, ein stabiles pharmazeutisches Präparat herzustellen. […] Es lagert sich bis zu einem Gleichgewicht in zwei isomere Substanzen um. Zwar wirken diese im Prinzip gleichartig, jedoch dürfen sie aus gesundheitsrechtlichen Gründen im Endprodukt nur geringfügig vorhanden sein.

Structure (SMILES)	Löslichkeit in Alkohol ([1]; Alkohol)	Löslichkeit in Wasser [1]	Löslichkeit in unpolaren organischen Lösungsmitteln ([1]; unpolare organische Lösungsmittel)	Haut- und Schleimhaut-Verträglichkeit ([2]; known property)	Toxizität bei Resorption ([2]; known property)	toxische Wirkung ([2]; use as 0,1% gargle solution over 20 years)	Haltbarkeit in wässeriger Lösung [3]
CCCCC(CC)CN1CN(CC(CC)CCCC)CC(C)(N)C1 (centres unmarked) [Hexetidin, 1,3-Bis-(2-ethylhexyl)-hexahydro-5-methyl-5-pyrimidinamin]	leicht löslich	nur schwer löslich	leicht löslich	gute	geringe	nie beobachtet	nur kurzfristig haltbar
CCCCC(CC)CN1CN(CC(CC)CCCC)CC(C)(N)C1 (centres unmarked) [Hexetidinsalz]		leicht löslich					
